Experimental data as given in patent US10934304B2, “Spirocyclic compounds” (Recurium IP Holdings, LLC, priority 2016, dated 2021).

Experiments:
A375 (melanoma) cells = assay: Proliferation Assay (CellTiter-Glo); format: cell-based; conditions: 3 days incubation, CellTiter-Glo luminescence
Protocol: A375 (melanoma), Colo-205 (colon cancer), Miapaca (pancreatic), HPAFII (pancreatic), sNF02.0 (neurofibromatosis type 1), sNF96.2 (neurofibromatosis type 1) and 8505 (Thyroid) cells were grown and maintained in RPMI-1640 medium containing 100 U/mL penicillin-streptomycin and 10% fetal bovine serum. Cells were in growth medium in 96-well opaque-walled clear bottom plates and incubated in the CO2 incubator overnight before treatment. Cells were treated with compounds diluted in DMSO and a 10 point 3-fold serial dilutions were done. Plates were placed in 37° C., 5% CO2 to incubate for 3 days. Before they were developed by adding 100 μL of CellTiter-Glo reagent (Promega) to the assay plate, plates were shaken briefly for 2 mins and allowed to incubate at room temperature for 10 mins. The bottom of the plates was pasted with white back seal and luminescence was recorded with Flexstation3 with setting of luminescence, integration time 500 ms.
Compounds of Formula (I), (II) and (III) are active in this assay as noted in Table 2.

ERK2 = ERK2 (Homo sapiens (Human), UniProt P28482); assay: Active ERK1 and ERK2 Kinase Assay (Mobility Shift Assay); format: biochemical; conditions: activated ERK2, Mobility Shift Assay
Protocol: Activated ERK1 and ERK2 activity was determined in a Mobility Shift Assay (MSA) format as follows: Compound and kinase solution were prepared with assay buffer (20 mM HEPES, 0.01% Triton X-100, 2 mM DTT, pH7.5) and mixed and incubated in for 30 mins at rt. ERK1 & ERK2 were then activated by the addition of F1-Substrate, ATP and metal solution and incubated for 1 h at rt. After 1 h, the reaction was terminated by the addition of […] of Termination Buffer (QuickScout Screening Assist MSA; Carna Biosciences) to the well. The reaction mixture was applied to LabChip™ system (PerkinElmer), and the product and substrate peptide peaks were separated, analyzed and quantitated. The kinase reaction is evaluated by the product ratio calculated from peak heights of product (P) and substrate(S) peptides (P/(P+S)).

Sequence of ERK2 (P28482 whole entry): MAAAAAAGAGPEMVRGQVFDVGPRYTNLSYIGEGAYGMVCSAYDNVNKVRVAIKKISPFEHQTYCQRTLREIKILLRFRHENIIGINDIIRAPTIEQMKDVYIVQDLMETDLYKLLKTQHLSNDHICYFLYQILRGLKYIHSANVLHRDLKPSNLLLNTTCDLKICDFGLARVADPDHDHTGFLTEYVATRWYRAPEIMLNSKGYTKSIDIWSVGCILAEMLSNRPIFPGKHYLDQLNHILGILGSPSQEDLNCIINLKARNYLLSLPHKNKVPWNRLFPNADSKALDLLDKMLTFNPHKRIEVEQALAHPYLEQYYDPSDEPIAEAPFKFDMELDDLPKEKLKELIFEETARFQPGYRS

Row | SMILES | IC50 (A375 (melanoma) cells) | IC50 (ERK2) | IC50 (A375 (melanoma) cells; Homo sapiens, A-375, 72 h)
1 | Cn1cnc(-c2ccc(C3=CCN(C(=O)CN4CC[C@]5(CCN(c6ccc7[nH]nc(C8CCOCC8)c7n6)C5=O)C4)CC3)cc2)n1 [Example 22, (S)-7-(2-(4-(4-(1-Methyl-1H-1,2,4-triazol-3-yl)phenyl)-5,6-dihydropyridin-1(2H)-yl)-2-oxoethyl)-2-(3-(tetrahydro-2H-pyran-4-yl)-1H-pyrazolo[4,3-b]pyridin-5-yl)-2,7-diazaspiro[4.4]nonan-1-one] |  | ≤ 50 nM | ≤ 500 nM
2 | CC1CC(c2n[nH]c3ccc(N4CCC5(CCN(CC(=O)N6CC=C(c7ccc(-c8nn(C)c(=O)o8)cc7)CC6)C5)C4=O)nc23)CC(C)O1 (stereo not shown) [Example 52] | ≤ 500 nM | ≤ 50 nM | 
3 | Cn1cnc(-c2ccc(C3=CCN(C(=O)CN4CC[C@]5(CCN(c6ccc7[nH]nc(-c8ccc(F)cn8)c7n6)C5=O)C4)CC3)cc2)n1 [Example 50] | 500 to 1000 nM | ≤ 50 nM | 
4 | CNC(=O)c1cc(-c2n[nH]c3ccc(N4CC[C@]5(CCN(CC(=O)N6CC=C(c7ccc(-c8ncn(C)n8)cc7)CC6)C5)C4=O)cc23)ccn1 [Example 5] |  | ≤ 50 nM | ≤ 500 nM
5 | Cn1nc(-c2ccc(C3=CCN(C(=O)CN4CCC5(CCN(c6ccc7[nH]nc(C8CCOCC8)c7n6)C5=O)C4)CC3)cc2)oc1=O (stereo not shown) [Example 23] | ≤ 500 nM | ≤ 50 nM | 
6 | Cn1cnc(-c2ccc(N3CCN(C(=O)CN4CC[C@]5(CCN(c6ccc7[nH]nc(-c8ccc(F)cc8)c7n6)C5=O)C4)CC3)nc2)n1 [Example 45] | ≤ 500 nM | ≤ 50 nM | 
7 | Cc1ccc(-c2n[nH]c3ccc(N4CC[C@]5(CCN(CC(=O)N6CC=C(c7ncc(-c8ncn(C)n8)s7)CC6)C5)C4=O)nc23)cn1 [Example 43] | ≤ 500 nM | ≤ 50 nM | 
8 | Cn1cnc(-c2ccc(C3=CCN(C(=O)CN4CC[C@]5(CCN(c6ccc7[nH]nc(-c8ccc(F)cn8)c7c6)C5=O)C4)CC3)cc2)n1 [Example 28, (S)-2-(3-(5-Fluoropyridin-2-yl)-1H-indazol-5-yl)-7-(2-(4-(4-(1-methyl-1H-1,2,4-triazol-3-yl)phenyl)-5,6-dihydropyridin-1(2H)-yl)-2-oxoethyl)-2,7-diazaspiro[4.4]nonan-1-one] |  | ≤ 50 nM | ≤ 500 nM
9 | COc1ncc(-c2n[nH]c3ccc(N4CC[C@]5(CCN(CC(=O)N6CC=C(c7ccc(-c8ncn(C)n8)cc7)CC6)C5)C4=O)cc23)cc1C(F)(F)F [Example 8] |  | ≤ 50 nM | ≥ 1000 nM
10 | Cc1ccc(-c2n[nH]c3ccc(N4CC[C@]5(CCN(CC(=O)N6CC=C(c7ccc(-c8ncn(C)n8)cc7)CC6)C5)C4=O)nc23)cn1 [Example 20] | ≤ 500 nM | ≤ 50 nM | 
11 | Cn1cnc(-c2ccc(C3=CCN(C(=O)CN4CCC5(CCN(c6ccc7[nH]nc(N8CCOCC8)c7n6)C5=O)C4)CC3)cc2)n1 (stereo not shown) [Example 49] | ≤ 500 nM | ≤ 50 nM | 
12 | CNC(=O)c1cc(-c2n[nH]c3ccc(N4CC[C@]5(CCN(CC(=O)N6CC=C(c7ccc(-c8nn(C)c(=O)o8)cc7)CC6)C5)C4=O)cc23)ccc1F [Example 16] | ≤ 500 nM | ≤ 50 nM | 
13 | CC(C)Oc1ccc(-c2n[nH]c3ccc(N4CC[C@]5(CCN(CC(=O)N6CC=C(c7ccc(-c8ncn(C)n8)cc7)CC6)C5)C4=O)c(F)c23)cn1 [Example 1, (S)-2-(4-Fluoro-3-(6-isopropoxypyridin-3-yl)-1H-indazol-5-yl)-7-(2-(4-(4-(1-methyl-1H-1,2,4-triazol-3-yl)phenyl)-5,6-dihydropyridin-1(2H)-yl)-2-oxoethyl)-2,7-diazaspiro[4.4]nonan-1-one] |  | ≥ 250 nM | ≥ 1000 nM
14 | COc1ccc(-c2n[nH]c3ccc(N4CC[C@]5(CCN(CC(=O)N6CC=C(c7ccc(-c8ncn(C)n8)cc7)CC6)C5)C4=O)cc23)cn1 [Example 2] |  | ≤ 50 nM | ≤ 500 nM
15 | Cc1nc2cc(-c3n[nH]c4ccc(N5CC[C@]6(CCN(CC(=O)N7CC=C(c8ccc(-c9ncn(C)n9)cc8)CC7)C6)C5=O)nc34)ccc2o1 [Example 24] | ≤ 500 nM | ≤ 50 nM | 

Next, values leading:

Row | IC50 (A375 (melanoma) cells) | IC50 (ERK2) | IC50 (A375 (melanoma) cells; Homo sapiens, A-375, 72 h) | SMILES
16 | ≤ 500 nM | ≤ 50 nM |  | COc1ccc(-c2n[nH]c3ccc(N4CC[C@]5(CCN(CC(=O)N6CC=C(c7ccc(-c8ncn(C)n8)cc7)CC6)C5)C4=O)nc23)cc1 [Example 63]
17 | 500 to 1000 nM | ≤ 50 nM |  | COc1cnc(-c2n[nH]c3ccc(N4CC[C@]5(CCN(CC(=O)N6CCC(c7ccc(-c8ncn(C)n8)cc7)CC6)C5)C4=O)cc23)c(F)c1 [Example 74]
18 |  | ≤ 50 nM | ≤ 500 nM | Cc1ccc(-c2n[nH]c3ccc(N4CC[C@]5(CCN(CC(=O)N6CCC(c7ncc(-c8ncn(C)n8)s7)CC6)C5)C4=O)nc23)cn1 [Example 80]
19 | ≤ 500 nM | ≤ 50 nM |  | Cn1cnc(-c2ccc(N3CCN(C(=O)CN4CC[C@]5(CCN(c6ccc7[nH]nc(-c8ccc(F)cn8)c7c6)C5=O)C4)CC3)cc2)n1 [Example 56]
20 | ≤ 500 nM | ≤ 50 nM |  | Cc1ccc(-c2n[nH]c3ccc(N4CC[C@]5(CCN(CC(=O)N6CCC(c7ccc(-c8ncn(C)n8)cc7)CC6)C5)C4=O)nc23)cn1 [Example 79]
21 |  | ≤ 50 nM | ≤ 500 nM | COc1ccc(-c2n[nH]c3ccc(N4CC[C@]5(CCN(CC(=O)N6CC=C(c7ncc(-c8ncn(C)n8)s7)CC6)C5)C4=O)nc23)cn1 [Example 36]
22 | 500 to 1000 nM | ≤ 50 nM |  | Cn1cnc(-c2ccc(C3=CCN(C(=O)CN4CC[C@]5(CCN(c6ccc7[nH]nc(-c8ccc(Cl)cc8F)c7n6)C5=O)C4)CC3)cc2)n1 [Example 69]
23 | ≤ 500 nM | ≤ 50 nM |  | CC(C)Oc1ccc(-c2n[nH]c3ccc(N4CC[C@]5(CCN(CC(=O)N6CCN(c7ccc(-c8ncn(C)n8)cc7)CC6)C5)C4=O)nc23)cn1 [Example 82]
24 | ≤ 500 nM | ≤ 50 nM |  | CC(C)Oc1ccc(-c2n[nH]c3ccc(N4CC[C@]5(CCN(CC(=O)N6CCN(c7ccc(-c8ncn(C)n8)cn7)CC6)C5)C4=O)nc23)cn1 [Example 84]
25 |  | ≤ 50 nM | ≤ 500 nM | Cn1cnc(-c2ccc(C3=CCN(C(=O)CN4CC[C@]5(CCN(c6ccc7[nH]nc(-c8ccc(C#N)cn8)c7c6)C5=O)C4)CC3)cc2)n1 [Example 29]
26 |  | ≤ 50 nM | ≤ 500 nM | Cn1cnc(-c2ccc(C3=CCN(C(=O)CN4CC[C@]5(CCN(c6ccc7[nH]nc(-c8cnn(C)n8)c7c6)C5=O)C4)CC3)cc2)n1 [Example 58, (S)-7-(2-(4-(4-(1-methyl-1H-1,2,4-triazol-3-yl)phenyl)-3,6-dihydropyridin-1(2H)-yl)-2-oxoethyl)-2-(3-(2-methyl-2H-1,2,3-triazol-4-yl)-1H-indazol-5-yl)-2,7-diazaspiro[4.4]nonan-1-one]
27 |  | ≤ 50 nM | ≤ 500 nM | Cn1nc(-c2ccc(C3=CCN(C(=O)CN4CC[C@]5(CCN(c6ccc7[nH]nc(C8=CCOCC8)c7c6)C5=O)C4)CC3)cc2)oc1=O [Example 32]
28 | ≤ 500 nM | ≤ 50 nM |  | Cn1cnc(-c2ccc(C3=CCN(C(=O)CN4CC[C@]5(CCN(c6ccc7[nH]nc(-c8ccc(Cl)cc8)c7n6)C5=O)C4)CC3)cc2)n1 [Example 68]
29 |  | ≤ 50 nM | ≤ 500 nM | Cn1cc(-c2n[nH]c3ccc(N4CC[C@]5(CCN(CC(=O)N6CC=C(c7ccc(-c8ncn(C)n8)cc7)CC6)C5)C4=O)nc23)cn1 [Example 37]
30 |  | ≤ 50 nM | 500 to 1000 nM | Cn1cnc(-c2ccc(C3=CCN(C(=O)CN4CC[C@]5(CCN(c6ccc7[nH]nc(C89CC(C8)C9)c7c6)C5=O)C4)CC3)cc2)n1 [Example 72, (S)-2-(3-(Bicyclo[1.1.1]pentan-1-yl)-1H-indazol-5-yl)-7-(2-(4-(4-(1-methyl-1H-1,2,4-triazol-3-yl)phenyl)-5,6-dihydropyridin-1(2H)-yl)-2-oxoethyl)-2,7-diazaspiro[4.4]nonan-1-one]
31 | ≤ 500 nM | ≤ 50 nM |  | Cn1cnc(-c2cnc(C3=CCN(C(=O)CN4CC[C@]5(CCN(c6ccc7[nH]nc(-c8ccc(F)cn8)c7c6)C5=O)C4)CC3)s2)n1 [Example 54]
32 |  | ≥ 250 nM | ≥ 1000 nM | Cn1cnc(-c2ccc(C3=CCN(C(=O)CN4CC[C@]5(CCN(c6ccc7[nH]nc(N8CCC9(CC8)COC9)c7n6)C5=O)C4)CC3)cc2)n1 [Example 42, (S)-2-(3-(2-oxa-7-azaspiro[3.5]nonan-7-yl)-1H-pyrazolo[4,3-b]pyridin-5-yl)-7-(2-(4-(4-(1-methyl-1H-1,2,4-triazol-3-yl)phenyl)-3,6-dihydropyridin-1(2H)-yl)-2-oxoethyl)-2,7-diazaspiro[4.4]nonan-1-one]
33 |  | 50 to 250 nM | ≥ 1000 nM | Cn1ccc(-c2n[nH]c3ccc(N4CC[C@]5(CCN(CC(=O)N6CC=C(c7ccc(-c8ncn(C)n8)cc7)CC6)C5)C4=O)nc23)n1 [Example 39]
34 | ≤ 500 nM | ≤ 50 nM |  | CC(C)Oc1ccc(-c2n[nH]c3ccc(N4CC[C@]5(CCN(CC(=O)N6CC=C(c7ccc(-c8ncn(CCO)n8)cc7)CC6)C5)C4=O)nc23)cn1 [Example 89]
35 |  | ≤ 50 nM | ≤ 500 nM | Cn1cnc(-c2cnc(C3=CCN(C(=O)CN4CC[C@]5(CCN(c6ccc7[nH]nc(C8CCOCC8)c7n6)C5=O)C4)CC3)s2)n1 [Example 34]
